The source of these data is patent US20220160686A1, “MACROCYCLIC AZOLOPYRIDINE DERIVATIVES AS EED AND PRC2 MODULATORS” (Fulcrum Therapeutics, Inc., priority 2019, published 2022).

The target in one assay is EZH2/PRC2 complex (Homo sapiens, UniProt O75530). Briefly: Histone methyltransferase assay (radioisotope-based HotSpot). The conditions noted are these: EZH2/PRC2 complex 10 nM, core histone substrate 0.05 mg/ml, 3H-SAM 1 μM; read-out: IC50, inhibitory effects on the HMT enzyme. In kind it is biochemical. As to the method: Effect of compounds of the present disclosure on EZH2/PRC2 complex methyltransferase functional activity was measured using the radioisotope-based HotSpot assay described by Horiuchi, K. Y., et al. Assay Drug Dev Technol. 11(4):227-36 (2013). Briefly, compounds were prepared in a 10-point 3-fold serial dilution in DMSO from a 10 mM stock in ECHO qualified plate using Assist Plus (Integra Biosciences) liquid handler. […] Nanoliter quantities of each compound's concentration series were transferred into the enzyme/substrate mix using (Echo 550, LabCyte Inc. Sunnyvale, Calif.) acoustic dispenser and pre-incubated for 20 min at room temperature. The methylation reaction was initiated by the addition of 1 μl of 5 μM S-Adenosyl-L-[methyl-^3H]methionine (^3H-SAM) and incubated at 30° C. for 1 h. The final concentration of the EZH2/PRC2 complex, core histone substrate and ^3H-SAM were 10 nM, 0.05 mg/ml, and 1 μM respectively. The % activity of test samples were calculated with reference to positive (no compound) and negative (no EZH2/PRC2) controls on the plate using Excel (Microsoft). The resulting values were exported to Prism (GraphPad software) to generate concentration response curves and IC50 values using the four-parameter logistic equation.
Chain of EZH2/PRC2 complex (O75530 whole entry): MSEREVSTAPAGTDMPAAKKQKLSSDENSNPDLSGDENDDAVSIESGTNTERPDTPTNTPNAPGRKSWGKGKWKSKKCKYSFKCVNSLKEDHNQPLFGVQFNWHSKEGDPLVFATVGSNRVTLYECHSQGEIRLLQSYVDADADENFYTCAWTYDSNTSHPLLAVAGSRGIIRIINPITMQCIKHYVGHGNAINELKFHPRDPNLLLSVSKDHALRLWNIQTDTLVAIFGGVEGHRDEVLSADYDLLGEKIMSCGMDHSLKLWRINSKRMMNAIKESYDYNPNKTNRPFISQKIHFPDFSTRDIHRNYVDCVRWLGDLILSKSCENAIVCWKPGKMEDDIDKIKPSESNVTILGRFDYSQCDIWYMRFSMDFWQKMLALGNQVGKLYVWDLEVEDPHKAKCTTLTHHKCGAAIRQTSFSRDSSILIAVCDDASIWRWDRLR
Chain of EZH2/PRC2 complex (Q15910 whole entry partner): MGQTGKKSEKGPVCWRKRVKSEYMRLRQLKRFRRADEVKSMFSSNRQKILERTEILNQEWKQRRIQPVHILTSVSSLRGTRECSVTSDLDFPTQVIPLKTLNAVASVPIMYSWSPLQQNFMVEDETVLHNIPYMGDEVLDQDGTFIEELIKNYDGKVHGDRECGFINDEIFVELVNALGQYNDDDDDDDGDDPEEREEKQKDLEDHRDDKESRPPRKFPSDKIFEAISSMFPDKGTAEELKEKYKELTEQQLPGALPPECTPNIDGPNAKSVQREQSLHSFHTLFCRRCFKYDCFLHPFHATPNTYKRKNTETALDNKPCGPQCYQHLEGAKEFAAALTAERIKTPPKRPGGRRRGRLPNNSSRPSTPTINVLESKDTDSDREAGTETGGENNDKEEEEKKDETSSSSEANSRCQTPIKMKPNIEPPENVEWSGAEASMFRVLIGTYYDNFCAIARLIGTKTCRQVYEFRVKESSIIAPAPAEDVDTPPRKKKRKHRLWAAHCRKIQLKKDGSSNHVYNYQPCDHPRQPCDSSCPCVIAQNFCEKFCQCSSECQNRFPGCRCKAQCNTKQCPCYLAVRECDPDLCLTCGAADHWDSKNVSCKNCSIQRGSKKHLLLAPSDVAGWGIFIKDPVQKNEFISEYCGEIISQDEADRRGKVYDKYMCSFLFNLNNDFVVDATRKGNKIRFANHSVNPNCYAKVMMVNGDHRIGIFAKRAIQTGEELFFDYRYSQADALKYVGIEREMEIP
Chain of EZH2/PRC2 complex (Q15022 whole entry partner): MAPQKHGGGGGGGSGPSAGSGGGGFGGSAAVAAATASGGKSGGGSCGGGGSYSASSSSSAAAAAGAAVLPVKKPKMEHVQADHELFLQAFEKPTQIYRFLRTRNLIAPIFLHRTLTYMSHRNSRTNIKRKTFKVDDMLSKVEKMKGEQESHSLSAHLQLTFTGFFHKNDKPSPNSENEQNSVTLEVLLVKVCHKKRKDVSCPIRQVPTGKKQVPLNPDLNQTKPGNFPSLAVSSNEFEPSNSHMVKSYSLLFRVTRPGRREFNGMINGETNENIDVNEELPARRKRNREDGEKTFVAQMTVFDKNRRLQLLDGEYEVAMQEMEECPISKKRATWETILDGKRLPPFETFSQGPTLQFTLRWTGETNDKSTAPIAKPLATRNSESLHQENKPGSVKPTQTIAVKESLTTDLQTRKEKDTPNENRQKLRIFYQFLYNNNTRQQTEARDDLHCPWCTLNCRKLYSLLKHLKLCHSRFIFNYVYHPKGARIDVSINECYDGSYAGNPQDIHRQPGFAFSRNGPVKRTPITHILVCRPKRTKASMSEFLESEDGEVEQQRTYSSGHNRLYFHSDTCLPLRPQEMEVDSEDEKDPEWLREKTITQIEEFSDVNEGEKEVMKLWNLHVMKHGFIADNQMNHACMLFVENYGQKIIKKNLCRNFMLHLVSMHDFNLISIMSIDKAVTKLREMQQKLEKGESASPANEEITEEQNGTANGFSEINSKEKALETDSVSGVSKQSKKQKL

The target of assay [1] is T1, biotinylated AVI-tagged EED (76-441) (Homo sapiens, UniProt O75530).
T1 construct: GST (N, cleaved yes); made in house; host or cells: E. coli BL21(DE3), co-expressed with pGro7
T1 sequence (O75530 76-441 limits assumed): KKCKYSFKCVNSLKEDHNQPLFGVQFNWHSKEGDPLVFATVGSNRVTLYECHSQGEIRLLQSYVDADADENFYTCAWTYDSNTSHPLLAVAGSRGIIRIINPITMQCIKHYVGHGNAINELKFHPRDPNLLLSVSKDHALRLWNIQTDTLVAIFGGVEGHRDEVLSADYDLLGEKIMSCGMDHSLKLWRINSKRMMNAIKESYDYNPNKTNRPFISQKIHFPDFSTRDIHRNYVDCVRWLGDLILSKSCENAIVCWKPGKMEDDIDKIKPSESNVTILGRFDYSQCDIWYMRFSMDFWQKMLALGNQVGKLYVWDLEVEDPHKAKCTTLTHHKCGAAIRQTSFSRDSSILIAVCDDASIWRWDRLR
Briefly: EED binding SPR assay. The conditions noted are these: 1:1 binding model; read-out: KD, equilibrium dissociation constant as measured by surface plasmon resonance (SPR). The procedure, abridged:
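Biotinylated AVI-EED(76-441) from E. coli was captured on Biotin CAPture chips (2200–2400 RU) in 10 mM HEPES pH 7.4, 150 mM NaCl, 0.05% Tween 20 and 2% DMSO. Compounds were run at 7 concentrations (3-fold dilutions) with 90 s association and 180 s dissociation, chip at 25 °C. Data were fitted to a 1:1 binding model.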
A general note: In SPR one partner is held on a chip, and binding of the other changes the refractive index at the surface.

For the compound `Cc1ncccc1-c1cc2c(n3cnnc13)NCc1c(F)cccc1CCO2` [Compound 5, 12-fluoro-4-(2-methylpyridin-3-yl)-7,8,13,14-tetrahydro-[1,2,4]triazolo[4′,3′:1,6]pyrido[3,2-b]benzo[f][1,4]oxazonine], on EZH2/PRC2 complex, the IC50 lay in the range of 25 to 50 nM. In addition, the Kd in assay [1] fell in the range of 5 to 10 nM.

On to `Cn1nc(F)cc1-c1cc2c(n3cnnc13)NCc1c(F)ccc3c1[C@@H](CO3)CO2` [Compound 168, (S)-12-fluoro-4-(3-fluoro-1-methyl-1H-pyrazol-5-yl)-7a,8,13,14-tetrahydro-7H-[1,2,4]triazolo[4′,3′:1,6]pyrido[3,2-b]benzofuro[4,3-fg][1,4]oxazonine], for which the IC50 on EZH2/PRC2 complex was less than 25 nM. In assay [1], the Kd is less than 2.5 nM.

As for `Cn1nc(C(C)(C)C#N)cc1-c1cc2c(n3cnnc13)NCc1c(F)ccc3c1[C@@H](CO3)CO2` [Compound 169, (S)-2-(5-(12-fluoro-7a,8,13,14-tetrahydro-7H-[1,2,4]triazolo[4′,3′:1,6]pyrido[3,2-b]benzofuro[4,3-fg][1,4]oxazonin-4-yl)-1-methyl-1H-pyrazol-3-yl)-2-methylpropanenitrile], the IC50 at EZH2/PRC2 complex is less than 25 nM. In addition, the Kd in assay [1] is less than 2.5 nM.

Regarding `Cn1cc(Cc2cc3c(n4cnnc24)NCc2cccc4c2[C@@H](CO4)CO3)cn1` [Compound 7, (S)-4-((1-methyl-1H-pyrazol-4-yl)methyl)-7a,8,13,14-tetrahydro-7H-[1,2,4]triazolo[4′,3′:1,6]pyrido[3,2-b]benzofuro[4,3-fg][1,4]oxazonine], the 50% inhibitory concentration (IC50) at EZH2/PRC2 complex is less than 25 nM. Also, the Kd in assay [1] was 10 to 50 nM.

As for `Cc1ncccc1-c1cc2c(n3cnnc13)NCc1c(F)cccc1COC2` [Compound 6, 12-fluoro-4-(2-methylpyridin-3-yl)-6,8,13,14-tetrahydro-[1,2,4]triazolo[4′,3′:1,6]pyrido[3,2-c]benzo[g][1,5]oxazonine], the IC50 at EZH2/PRC2 complex was greater than 500 nM. Further, in assay [1], the Kd is greater than 50 nM.

For the compound `Fc1ccc2c3c1CNc1c(cc(C4COC4)c4nncn14)OC[C@@H]3CO2` [Compound 12, (S)-12-fluoro-4-(oxetan-3-yl)-7a,8,13,14-tetrahydro-7H-[1,2,4]triazolo[4′,3′:1,6]pyrido[3,2-b]benzofuro[4,3-fg][1,4]oxazonine], the IC50 at EZH2/PRC2 complex was less than 25 nM. Moreover, the Kd in assay [1] lay in the range of 2.5 to 5 nM.

`Cc1ncccc1-c1cc2c(n3cc(C(N)=O)nc13)NCc1c(F)ccc3c1[C@@H](CO3)CO2` [Compound 176, (S)-5-fluoro-12-(2-methylpyridin-3-yl)-6,7,15,15a-tetrahydro-1H-benzofuro[4,3-fg]imidazo[r,2′:1,6]pyrido[3,2-b][1,4]oxazonine-10-carboxamide]: the concentration for half-maximal inhibition (IC50) on EZH2/PRC2 complex was in the range of 25 to 50 nM. Further, the Kd in assay [1] is 10 to 50 nM.

Regarding `COC(=O)N1CCC(c2cc3c(n4cnnc24)NCc2c(F)ccc4c2C(CO4)CO3)CC1` [Compound 16, methyl (S)-4-(12-fluoro-7a,8,13,14-tetrahydro-7H-[1,2,4]triazolo[4′,3′:1,6]pyrido[3,2-b]benzofuro[4,3-fg][1,4]oxazonin-4-yl)piperidine-1-carboxylate], the half-inhibitory concentration (IC50) at EZH2/PRC2 complex is less than 25 nM. The Kd in assay [1] was less than 2.5 nM.

On to `Cn1nc(OC(F)F)cc1-c1cc2c(n3cnnc13)NCc1c(F)ccc3c1[C@@H](CO3)CO2` [Compound 167, (S)-4-(3-(difluoromethoxy)-1-methyl-1H-pyrazol-5-yl)-12-fluoro-7a,8,13,14-tetrahydro-7H-[1,2,4]triazolo[4′,3′:1,6]pyrido[3,2-b]benzofuro[4,3-fg][1,4]oxazonine], for which, at EZH2/PRC2 complex, the IC50 is less than 25 nM. Also, in assay [1], the Kd is less than 2.5 nM.

`Cn1nccc1-c1cc2c(n3cc(C#N)nc13)NCc1c(F)ccc3c1[C@@H](CO3)CO2` [Compound 172, (S)-5-fluoro-12-(1-methyl-1H-pyrazol-5-yl)-6,7,15,15a-tetrahydro-1H-benzofuro[4,3-fg]imidazo[r,2′:1,6]pyrido[3,2-b][1,4]oxazonine-10-carbonitrile]: the IC50 at EZH2/PRC2 complex is less than 25 nM. In assay [1], the dissociation constant (Kd) was less than 2.5 nM.

For `Cc1ncccc1-c1cc2c(n3cc(C#N)nc13)NCc1c(F)ccc3c1[C@@H](CO3)CO2` [Compound 186, (S)-5-fluoro-12-(2-methylpyridin-3-yl)-6,7,15,15a-tetrahydro-1H-benzofuro[4,3-fg]imidazo[1′,2′:1,6]pyrido[3,2-b][1,4]oxazonine-10-carbonitrile], at EZH2/PRC2 complex, the 50% inhibitory concentration (IC50) is less than 25 nM. Moreover, the Kd in assay [1] is less than 2.5 nM.

For `CS(=O)(=O)c1ccc(-c2cc3c(n4cnnc24)NCc2c(F)ccc4c2C(CO4)CO3)cc1` (stereo not shown) [Example 36], the IC50 on EZH2/PRC2 complex is less than 25 nM. Besides, the Kd in assay [1] is less than 2.5 nM.

For `Cc1ncccc1-c1cc2c(n3cnnc13)NCc1cccc3c1[C@H](CO3)CO2` [Compound 1, (15R)-10-(2-methyl-3-pyridyl)-13,17-dioxa-3,5,7,8-tetrazapentacyclo[13.6.1.04,12.05,9.018,22] docosa-1(22),4(12),6,8,10,18,20-heptaene], at EZH2/PRC2 complex, the IC50 is less than 25 nM. In assay [1], the equilibrium dissociation constant (Kd) is less than 2.5 nM.

Regarding `Fc1ccc2c3c1CNc1c(cc(Br)c4nncn14)OC[C@@H]3CO2` [Compound 165, (S)-4-bromo-12-fluoro-7a,8,13,14-tetrahydro-7H-[1,2,4]triazolo[4′,3′:1,6]pyrido[3,2-b]benzofuro[4,3-fg][1,4]oxazonine], at EZH2/PRC2 complex, the IC50 is less than 25 nM. In assay [1], the Kd is 10 to 50 nM.

With `COc1ncc(-c2cc3c(n4cnnc24)NCc2c(F)ccc4c2[C@H](CO4)CO3)cn1` [Example 30], on EZH2/PRC2 complex, the IC50 is less than 25 nM. Besides, the Kd in assay [1] is less than 2.5 nM.

Turning to `Cc1ncoc1-c1cc2c(n3cnnc13)NCc1c(F)ccc3c1[C@@H](CO3)CO2` [Compound 189, (S)-12-fluoro-4-(4-methyloxazol-5-yl)-7a,8,13,14-tetrahydro-7H-[1,2,4]triazolo[4′,3′:1,6]pyrido[3,2-b]benzofuro[4,3-fg][1,4]oxazonine], the IC50 on EZH2/PRC2 complex was less than 25 nM. Further, the Kd in assay [1] was less than 2.5 nM.

Turning to `Cc1ncc(-c2cc3c(n4cnnc24)NCc2c(F)ccc4c2[C@@H](CO4)CO3)c(C)n1` [Compound 13, (S)-4-(2,4-dimethylpyrimidin-5-yl)-12-fluoro-7a,8,13,14-tetrahydro-7H-[1,2,4]triazolo[4′,3′:1,6]pyrido[3,2-b]benzofuro[4,3-fg][1,4]oxazonine], the half-inhibitory concentration (IC50) on EZH2/PRC2 complex is less than 25 nM. Moreover, the Kd in assay [1] is less than 2.5 nM.

In the case of `Cc1ncc(-c2cc3c(n4cnnc24)NCc2c(F)cccc2CCO3)c(C)n1` [Compound 14, 4-(2,4-dimethylpyrimidin-5-yl)-12-fluoro-7,8,13,14-tetrahydro-[1,2,4]triazolo[4′,3′:1,6]pyrido[3,2-b]benzo[f][1,4]oxazonine], at EZH2/PRC2 complex, the IC50 lay in the range of 50 to 100 nM. Moreover, the Kd in assay [1] was 10 to 50 nM.

Consider `Cn1nccc1-c1cc2c(n3cc(C(N)=O)nc13)NCc1c(F)ccc3c1[C@@H](CO3)CO2` [Compound 175, (S)-5-fluoro-12-(1-methyl-1H-pyrazol-5-yl)-6,7,15,15a-tetrahydro-1H-benzofuro[4,3-fg]imidazo[r,2′:1,6]pyrido[3,2-b][1,4]oxazonine-10-carboxamide], for which the half-inhibitory concentration (IC50) at EZH2/PRC2 complex is less than 25 nM. Besides, in assay [1], the Kd is less than 2.5 nM.

In the case of `Cn1cc(Cc2cc3c(n4cnnc24)NCc2c(F)ccc4c2[C@@H](CO4)CO3)cn1` [Compound 10, (S)-12-fluoro-4-((1-methyl-1H-pyrazol-4-yl)methyl)-7a,8,13,14-tetrahydro-7H-[1,2,4]triazolo[4′,3′:1,6]pyrido[3,2-b]benzofuro[4,3-fg][1,4]oxazonine], the IC50 at EZH2/PRC2 complex was less than 25 nM. For the same compound, the Kd in assay [1] was in the range of 5 to 10 nM.

The term IC50 denotes the point on the concentration scale where inhibition reaches its midpoint. The term Kd denotes the free concentration of one partner at which half of the binding sites on the other are occupied at equilibrium, for simple one-to-one binding.
